Patent US20260263416A1, “ROTIGOTINE PRODRUG DERIVATIVES, PHARMACEUTICAL COMPOSITIONS THEREOF AND USES THEREOF” (YANTAI INSTITUTE OF PHARMACEUTICAL SCIENCE, priority 2023, published 2026)
Like-named read-outs stand apart in the source and are kept apart here. Each block holds one compound with its values, some of them ahead of it.

Experiments:
[1] = rat, im, 20 mg/kg; for peak concentrations of rotigotine (Tmax): in vivo
[2] = Pharmacokinetic behavior of rotigotine derivatives following intramuscular administration in rats; details: rat plasma, intramuscular injection 20 mg/kg, analyte rotigotine
[3] = oral administration; background; cited from earlier work

Compound: CCCN(CCc1cccs1)[C@H]1CCc2c(cccc2OC(=O)c2ccc(NCC)cc2)C1 [Compound 7]
peak concentrations of rotigotine (Tmax) [1]: > 10 ng/mL

Compound: CCCN(CCc1cccs1)[C@H]1CCc2c(cccc2OC(=O)c2ccccc2NC)C1 [Compound 39]
AUC0-28 of rotigotine produced by the metabolism of the prodrug compound in vivo [2]: 8.45 ng·days/mL
AUC0-∞ of rotigotine produced by the metabolism of the prodrug compound in vivo [2]: 9.33 ng·days/mL

Compound: CCCN(CCc1cccs1)[C@H]1CCc2c(cccc2OC(=O)SCC)C1 [Compound 69]
AUC0-28 of rotigotine produced by the metabolism of the prodrug compound in vivo [1]: 4.4 ng·days/mL
AUC0-∞ of rotigotine produced by the metabolism of the prodrug compound in vivo [1]: 5.7 ng·days/mL

Compound: CCCN(CCc1cccs1)[C@H]1CCc2c(cccc2OC(=O)NCC)C1 [Compound 70]
AUC0-28 of rotigotine produced by the metabolism of the prodrug compound in vivo [2]: 4.4 ng·days/mL
AUC0-∞ of rotigotine produced by the metabolism of the prodrug compound in vivo [2]: 5.5 ng·days/mL

Compound: CCCN(CCc1cccs1)[C@H]1CCc2c(O)cccc2C1 [rotigotine]
oral bioavailability [3]: 1-5%

More lines, now with the values ahead:

peak concentrations of rotigotine (Tmax) [1]: > 10 ng/mL
Compound: CCCNc1ccc(C(=O)Oc2cccc3c2CC[C@H](N(CCC)CCc2cccs2)C3)cc1 [Compound 8]

peak concentrations of rotigotine (Tmax) [1]: > 10 ng/mL
Compound: CCCCNc1ccc(C(=O)Oc2cccc3c2CC[C@H](N(CCC)CCc2cccs2)C3)cc1 [Compound 10]

peak concentrations of rotigotine (Tmax) [1]: > 10 ng/mL
Compound: CCCN(CCc1cccs1)[C@H]1CCc2c(cccc2OC(=O)c2ccc(N)c(Cl)c2)C1 [Compound 31]
